Laboratory results published in the supplement of paper PMC10307832.

Tests used:
Assay in all cases: relative viability (nuclei count vs DMSO), 5 days (fraction); higher = more cells survive
[1] = compound: CC(C)C[C@H](NC(=O)[C@H](Cc1ccccc1)NC(=O)c1cnccn1)B(O)O [Bortezomib] + CC1(C)CCC(c2ccc(Cl)cc2)=C(CN2CCN(c3ccc(C(=O)NS(=O)(=O)c4ccc(N[C@H](CCN5CCOCC5)CSc5ccccc5)c(S(=O)(=O)C(F)(F)F)c4)cc3)CC2)C1 [Navitoclax] (partner 0.5 µM)
In short: (§1)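 After 5 days of treatment, lung cancer cells in 1536-well plates were fixed and stained in a single step (final 0.05% Triton X-100, 1% formaldehyde, 1 ug/ml Hoechst) and their nuclei counted on 4× images. Treatment had been applied by pin tool the day after seeding as one drug alone or as a fixed anchor-drug dose with five library-drug doses (not always all listed) in √10 steps. Relative viability is the nuclei count of treated wells divided by that of vehicle wells, and values are medians of duplicate plates.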

[2] = compound: CC(C)C[C@H](NC(=O)[C@H](Cc1ccccc1)NC(=O)c1cnccn1)B(O)O [Bortezomib] + Cc1cc(Nc2cc(N3CCN(C)CC3)nc(Sc3ccc(NC(=O)C4CC4)cc3)n2)n[nH]1 [Tozasertib] (partner 0.1 µM)
In short: as §1

[3] = compound: CC1=CC(=NN1)NC2=CC(=NC(=N2)/C=C/C3=CC=CC=C3)N4CCN(CC4)C + C[C@@H](Oc1cc(-c2cnn(C3CCNCC3)c2)cnc1N)c1c(Cl)ccc(F)c1Cl [Crizotinib] (partner 1 µM)
In short: as §1

[4] = compound: CC(C)C[C@H](NC(=O)[C@H](Cc1ccccc1)NC(=O)c1cnccn1)B(O)O [Bortezomib] + Nc1ncn([C@H]2C[C@H](O)[C@@H](CO)O2)c(=O)n1 [Decitabine] (partner 2 µM)
In short: as §1

Cell Line | relative viability ([1]; first compound 0.0002 µM) | relative viability ([1]; first compound 0.000632 µM) | relative viability ([1]; first compound 0.002 µM) | relative viability ([1]; first compound 0.006325 µM) | relative viability ([1]; first compound 0.02 µM) | relative viability ([2]; first compound 0.0002 µM) | relative viability ([2]; first compound 0.000632 µM) | relative viability ([2]; first compound 0.002 µM) | relative viability ([2]; first compound 0.006325 µM) | relative viability ([2]; first compound 0.02 µM) | relative viability ([3]; first compound 0.08 µM) | relative viability ([3]; first compound 0.253 µM) | relative viability ([3]; first compound 0.8 µM) | relative viability ([3]; first compound 2.53 µM) | relative viability ([3]; first compound 8 µM) | relative viability ([4]; first compound 0.0002 µM) | relative viability ([4]; first compound 0.000632 µM) | relative viability ([4]; first compound 0.002 µM) | relative viability ([4]; first compound 0.006325 µM) | relative viability ([4]; first compound 0.02 µM)
201T | 1.21 | 1.19 | 1.21 | 1.22 | 1.23 | 0.863 | 0.968 | 1.01 | 0.715 | 0.278 | 1.01 | 1.07 | 0.965 | 0.982 | 0.786 | 0.846 | 0.859 | 0.894 | 0.819 | 0.274
A549 | 1.14 | 1.22 | 1.07 | 0.0316 | 0.0335 |  |  |  |  |  | 0.873 | 0.537 | 0.257 | 0.112 | 0.0338 | 0.294 | 0.205 | 0.339 | 0.201 | 0.248
A-427 | 0.91 | 1.01 | 0.963 | 0.988 | 0.112 | 0.212 | 0.263 | 0.193 | 0.105 | 0.102 | 0.878 | 0.878 | 0.937 | 0.399 | 0.0861 | 0.531 | 0.536 | 0.579 | 0.247 | 0.18
ABC-1 |  |  |  |  |  | 0.162 | 0.213 | 0.181 | 0.16 | 0.226 | 0.866 | 1.25 | 0.562 | 0.182 | 0.169 | 1.09 | 1 | 0.389 | 0.284 | 0.287
BEN | 0.0276 | 0.0636 | 0.151 | 0.0617 | 0.0356 | 0.496 | 0.554 | 0.449 | 0.511 | 0.362 | 0.881 | 1.09 | 0.804 | 0.675 | 0.167 | 0.716 | 0.801 | 0.678 | 0.522 | 0.337
CAL-12T | 1.27 | 1.14 | 1.26 | 0.19 | 0.123 | 0.322 | 0.285 | 0.358 | 0.193 | 0.106 | 0.825 | 0.54 | 0.291 | 0.11 | 0.0934 |  |  |  |  | 
COR-L23 | 0.933 | 1.02 | 0.528 | 0.0681 | 0.0713 | 0.198 | 0.198 | 0.153 | 0.049 | 0.0491 | 0.696 | 0.676 | 0.41 | 0.159 | 0.0747 | 0.439 | 0.417 | 0.396 | 0.0939 | 0.0825
COR-L 105 | 0.745 | 0.786 | 0.684 | 0.291 | 0.253 | 0.357 | 0.345 | 0.216 | 0.254 | 0.19 | 0.897 | 0.731 | 0.445 | 0.222 | 0.191 | 0.695 | 0.614 | 0.526 | 0.33 | 0.278
Calu-6 | 0.749 | 0.882 | 0.69 | 0.0841 | 0.0734 |  |  |  |  |  | 0.735 | 0.622 | 0.345 | 0.197 | 0.101 |  |  |  |  | 
ChaGo-K-1 |  |  | 0.964 | 0.307 | 0.2 | 0.233 | 0.207 | 0.248 | 0.165 | 0.155 | 1.1 | 1.07 | 1.13 | 0.484 | 0.267 | 0.49 | 0.444 | 0.561 | 0.444 | 0.161
EBC-1 | 0.439 | 0.299 | 0.195 | 0.0921 | 0.104 |  |  |  |  |  | 0.188 | 0.185 | 0.213 | 0.137 | 0.108 |  |  |  |  | 
EKVX | 0.95 | 1.03 | 0.978 | 0.44 | 0.0945 | 0.419 | 0.437 | 0.342 | 0.2 | 0.105 | 0.991 | 1.12 | 0.978 | 0.552 | 0.147 | 0.36 | 0.393 | 0.431 | 0.25 | 0.0809
EMC-BAC-2 | 1.13 | 1.2 | 1.28 | 0.595 | 0.171 | 0.249 | 0.274 | 0.403 | 0.171 | 0.174 | 0.788 | 0.721 | 0.566 | 0.296 | 0.0972 | 1.07 | 0.987 | 0.828 | 0.559 | 0.196
EPLC-272H |  |  | 1.06 | 0.0971 | 0.0714 | 0.297 | 0.258 | 0.221 | 0.1 | 0.101 | 0.884 | 1.06 | 0.711 | 0.452 | 0.174 | 0.378 | 0.348 | 0.321 | 0.0848 | 0.065
H3255 | 0.533 | 0.557 | 0.557 | 0.105 | 0.0892 | 0.783 | 0.589 | 0.564 | 0.184 | 0.243 | 0.731 | 0.936 | 0.943 | 0.74 | 0.192 | 0.587 | 0.583 | 0.316 | 0.192 | 0.204
HARA | 1.14 | 1.16 | 1.12 | 0.075 | 0.108 | 0.0998 | 0.0941 | 0.0961 | 0.0503 | 0.061 | 1.05 | 1.01 | 0.932 | 0.138 | 0.1 | 0.459 | 0.569 | 0.415 | 0.125 | 0.124
HCC-15 | 0.706 | 0.681 | 0.692 | 0.421 | 0.116 | 0.372 | 0.45 | 0.405 | 0.0716 | 0.0808 | 0.864 | 0.823 | 0.783 | 0.298 | 0.0811 | 0.626 | 0.619 | 0.598 | 0.111 | 0.114
